# In paper PMC10223265 (Viruses, 2023):
# Like-named read-outs stand apart in the source and are kept apart here. Where a SMILES comes first, the peptide text is derived from it. Side-chain parts run from the residue outwards. The star is where a group is joined. X1 = CC(=O)N1CCC(C(=O)N(CCCN2CCC(Cc3ccc(C(=O)*)cc3)CC2)c2ccc(C)c(Cl)c2)CC1; PEG4 = NCCOCCOCCOCCOCCC(=O)O
# Experiments:
# [1] = CD spectroscopy of isolated peptides; type: physicochemical; details: 10 μM, [θ]222nm
# CCR5 = CCR5 (Homo sapiens, UniProt P51681); experiment: RANTES-induced calcium mobilization assay in CCR5-expressing HEK293 cells; type: cell-based; details: RANTES 34.6 nM, HEK293 cells expressing Gα15 and CCR5, Fluo-4
# [2] = test system: HIV-1 BaL strain (subtype B, R5); experiment: HIV-1 infection assay (p24 ELISA), laboratory-adapted R5 virus; type: cell-based; details: Human immunodeficiency virus 1, BAL, CEMx174 5.25M7
# [3] = test system: HIV-1 J32228M4 (subtype D, R5); experiment: HIV-1 infection assay, primary isolate J32228M4; type: cell-based; details: Human immunodeficiency virus 1, CEMx174 5.25 M7 cells
# [4] = test system: HIV-1 91US_4 (subtype B, R5); experiment: HIV-1 infection assay, primary isolate 91US_4; type: cell-based; details: Human immunodeficiency virus 1, primary isolate 91US_4, subtype B, CEMx174 5.25 M7 cells
# [5] = test system: HIV-1 strain 89BZ167 (subtype B, X4); experiment: HIV-1 infection assay, primary isolate 89BZ167; type: cell-based; details: Human immunodeficiency virus 1, CEMx174 5.25M7
# [6] = test system: HIV-1 92UG029 (subtype A, X4); experiment: HIV-1 infection assay, primary isolate 92UG029; type: cell-based; details: Human immunodeficiency virus 1, primary isolate 92UG029, subtype A, CEMx174 5.25 M7 cells
# proteinase K = proteinase K (Parengyodontium album, UniProt P06873); experiment: Metabolic stability in proteinase K solution; type: in vitro ADME; details: proteinase K 100 ng/mL, 50 μM peptide, 37 °C, 4-h incubation, read-out: original amount remaining
# CEMx174 5.25M7 cells = experiment: Cell Counting Kit-8 (CCK8) cytotoxicity assay; type: cell-based; details: at 2000 nM
# [7] = Solubility (saturated solution, RP-HPLC); type: physicochemical
# [8] = Metabolic stability in rat plasma; type: in vitro ADME; details: 37 °C, 4-h incubation, read-out: degradation
# [9] = PBS pH 7.4, room temperature, read-out: Solubility in PBS (pH 7.4)
# Sequence of CCR5 (P51681 whole entry): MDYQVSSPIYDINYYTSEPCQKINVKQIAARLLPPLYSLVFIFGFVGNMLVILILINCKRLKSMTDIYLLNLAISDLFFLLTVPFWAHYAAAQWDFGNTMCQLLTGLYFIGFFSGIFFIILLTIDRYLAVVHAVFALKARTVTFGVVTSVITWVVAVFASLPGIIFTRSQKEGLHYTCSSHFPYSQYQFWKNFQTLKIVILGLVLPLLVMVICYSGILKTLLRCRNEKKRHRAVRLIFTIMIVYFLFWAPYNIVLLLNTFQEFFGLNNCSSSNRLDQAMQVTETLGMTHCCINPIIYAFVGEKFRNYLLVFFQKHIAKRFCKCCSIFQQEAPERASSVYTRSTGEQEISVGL
# Sequence of proteinase K (P06873 106-384): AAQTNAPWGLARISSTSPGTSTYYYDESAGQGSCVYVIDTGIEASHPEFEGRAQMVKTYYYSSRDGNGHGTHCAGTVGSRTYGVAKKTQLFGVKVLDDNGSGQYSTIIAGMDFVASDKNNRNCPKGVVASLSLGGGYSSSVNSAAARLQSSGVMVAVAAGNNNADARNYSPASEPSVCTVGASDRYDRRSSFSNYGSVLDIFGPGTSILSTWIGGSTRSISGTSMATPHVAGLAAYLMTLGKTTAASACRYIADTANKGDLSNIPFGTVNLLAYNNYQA
compound,measurement,setting,value
CC[C@H](C)[C@H](NC(=O)[C@H](CO)NC(=O)[C@H](CCC(=O)O)NC(=O)[C@H](CCC(=O)O)NC(=O)[C@H](CCC(N)=O)NC(=O)[C@H](CCCCN)NC(=O)[C@H](CCCCN)NC(=O)[C@@H](NC(=O)[C@H](CCC(N)=O)NC(=O)[C@H](CCC(=O)O)NC(=O)[C@H](CCC(=O)O)NC(=O)[C@@H](NC(=O)[C@H](CCCCN)NC(=O)[C@H](CCCCN)NC(=O)[C@@H](NC(=O)[C@H](CC(C)C)NC(=O)[C@H](CCC(=O)O)NC(=O)[C@H](CCC(=O)O)NC(=O)[C@H](CO)NC(=O)[C@H](CCCCN)NC(=O)[C@H](CCCCN)NC(=O)[C@@H](NC(=O)[C@H](CC(C)C)NC(=O)[C@H](CCC(=O)O)NC(=O)[C@H](CCC(=O)O)NC(=O)[C@@H](NC(=O)[C@H](CCCCN)NC(=O)[C@H](CCCCN)NC(=O)[C@H](CC(=O)O)NC(=O)[C@H](Cc1c[nH]c2ccccc12)NC(=O)[C@H](CCC(=O)O)NC(=O)[C@H](CCC(=O)O)NC(=O)[C@H](Cc1c[nH]c2ccccc12)NC(=O)[C@@H](NC(=O)[C@H](CCSC)NC(C)=O)[C@@H](C)O)[C@@H](C)CC)[C@@H](C)CC)[C@@H](C)CC)[C@@H](C)CC)[C@@H](C)CC)C(=O)N[C@@H](CCCCN)C(=O)N[C@@H](CCCCN)C(N)=O [AP3] (Ac-MTWEEWDKKIEELIKKSEELIKKIEEQIKKQEESIKK-NH2),helical content (isolated peptide),[1],86%
same,IC50,CCR5,> 625 nM
CC(=O)N1CCC(C(=O)N(CCCN2CCC(Cc3ccc(C(N)=O)cc3)CC2)c2ccc(C)c(Cl)c2)CC1 [TAK-220],EC50,[2],23.8 ± 13.3 nM
same,EC50,[3],161 ± 6.6 nM
same,EC50,[4],12.1 ± 2.7 nM
same,EC50,[5],> 300 nM
same,EC50,[6],> 300 nM
same,IC50,CCR5,0.74 nM
CC[C@H](C)[C@H](NC(=O)[C@H](CO)NC(=O)[C@H](CCC(=O)O)NC(=O)[C@H](CCC(=O)O)NC(=O)[C@H](CCC(N)=O)NC(=O)[C@H](CCCCN)NC(=O)[C@H](CCCCN)NC(=O)[C@@H](NC(=O)[C@H](CCC(N)=O)NC(=O)[C@H](CCC(=O)O)NC(=O)[C@H](CCC(=O)O)NC(=O)[C@@H](NC(=O)[C@H](CCCCN)NC(=O)[C@H](CCCCN)NC(=O)[C@@H](NC(=O)[C@H](CC(C)C)NC(=O)[C@H](CCC(=O)O)NC(=O)[C@H](CCC(=O)O)NC(=O)[C@H](CO)NC(=O)[C@H](CCCCN)NC(=O)[C@H](CCCCN)NC(=O)[C@@H](NC(=O)[C@H](CC(C)C)NC(=O)[C@H](CCC(=O)O)NC(=O)[C@H](CCC(=O)O)NC(=O)[C@@H](NC(=O)[C@H](CCCCN)NC(=O)[C@H](CCCCN)NC(=O)[C@H](CC(=O)O)NC(=O)[C@H](Cc1c[nH]c2ccccc12)NC(=O)[C@H](CCC(=O)O)NC(=O)[C@H](CCC(=O)O)NC(=O)[C@H](Cc1c[nH]c2ccccc12)NC(=O)[C@@H](NC(=O)[C@H](CCSC)NC(C)=O)[C@@H](C)O)[C@@H](C)CC)[C@@H](C)CC)[C@@H](C)CC)[C@@H](C)CC)[C@@H](C)CC)C(=O)N[C@@H](CCCCN)C(=O)N[C@@H](CCCCN)C(=O)N[C@@H](CCCCNC(=O)CCOCCOCCOCCOCCNC(=O)c1ccc(CC2CCN(CCCN(C(=O)C3CCN(C(C)=O)CC3)c3ccc(C)c(Cl)c3)CC2)cc1)C(N)=O [AP3P4E] (Ac-MTWEEWDKKIEELIKKSEELIKKIEEQIKKQEESIKKK([PEG4-X1])-NH2),helical content (isolated peptide),[1],83%
same,"remaining at 4 h, 50 μM",proteinase K,89.9%
same,cytotoxicity,CEMx174 5.25M7 cells,no cytotoxicity
same,solubility at 24 h,[7]; [9],> 60000 µg/mL
same,solubility at 24 h,"[7]; dd-H2O, H2O, room temperature, read-out: Solubility in H2O",> 60000 µg/mL
enfuvirtide,"metabolised at 4 h, 50 μM",[8],68%
same,"remaining at 4 h, 50 μM",proteinase K,35.8%
same,solubility thermodynamic at 24 h,[7]; [9],1020 ± 30 µg/mL
same,solubility thermodynamic at 24 h,"[7]; water (dd-H2O), H2O, room temperature, read-out: Solubility in H2O",330 ± 10 µg/mL
